# Measured values from patent publication US12514833B2, “Combination of ibuprofen and tramadol for relieving pain” (FARMALÍDER, S.A., priority 2019, dated 2026).
# Structures can show the parent of a compound that is named as a salt.
# Assays:
# Format in all cases: in vivo, human
# [1] = test system: patients with visceral moderate to intense pain after non-oncologic abdominal hysterectomy; assay: Example 3: phase III trial, oral ibuprofen arginate/tramadol HCl (400/37.5), pain after hysterectomy (VAS, rescue medication, adverse effects); conditions: tramadol HCl 50 mg; for Total rescued patients (number) / Total rescued patients (%): 8 doses every 6 hours, 48 hours; for Total rescued patients (number): N = 91/94/98, ibuprofen arginate 400 mg; for Total rescued patients (%) / Rescued patients at 24 h (%) / Rescued patients at 24 h (number) / Average time until rescue: ibuprofen arginate 400 mg; for Rescued patients at 24 h (%) / Rescued patients at 24 h (number): first 24 h of the study
# Procedure: (§1) A phase III, multicentre, randomized, double-blind, placebo-controlled, study was performed to assess the compared efficacy and safety of the combination of ibuprofen arginate/tramadol HCl (400 mg ibuprofen/37.5 mg tramadol HCl) administered by the oral route, compared to oral tramadol (50 mg), oral ibuprofen arginate (400 mg ibuprofen) and placebo for treating adult patients (aged 18 or more) suffering from visceral moderate to intense pain after non-oncologic abdominal hysterectomy.
# (§2) Pain intensity was assessed using the Visual Analogue Scale (VAS).
# The patients selected for the study were adults suffering from moderate to severe pain (VAS 0-100≥40 mm) after total or partial abdominal hysterectomy for benign, non-oncologic disease, which required hospitalization during at least 48 hours.
# The patients were divided in four groups, receiving the following medication: • Group 1: ibuprofen arginate/tramadol HCl 400 mg/37.5 mg (91 patients) • Group 2: ibuprofen arginate 400 mg (94 patients) • Group 3: tramadol HCl 50 mg (98 patients) • Group 4: placebo (93 patients)
# (§3) The amount of ibuprofen arginate (400 mg) is expressed as the amount of ibuprofen in acidic form.
# The combination of ibuprofen arginate/tramadol HCl administered to the patients of Group 1 was in the form of granulate for oral administration (as described in Example 4 below). Each dosage comprised 340 mg of L-arginine.
# Patients of Group 2 received the commercial medicine Espidifen® 400 mg, each dose comprising 400 mg of ibuprofen, as 770 mg of ibuprofen arginate.
# Patients of Group 3 received the commercial medicine Adolonta® 100 mg/ml oral solution, and a dose of 50 mg of tramadol HCl was administered.
# After the surgery, the pain intensity of each patient was evaluated according to the VAS test until reaching the value ≥40 mm. At that moment, each patient was recruited and assigned to one of the four groups in a randomized way and the corresponding medication was administered. A new VAS test was performed after the administration of the first dose of the medication, which was taken as the basal value. Subsequently, 7 more doses of the assigned medication were administered, with an interval of 6 hours between doses, so a total of 8 doses were administered to each patient.
# After the administration of the first dosage of each medication, the evolution of the patients was followed until 48 hours after the first dosage, by assessing the change in pain intensity.
# After 30 minutes from the first dosage, patients were allowed to request a rescue medication, if needed. Rescue medication was 1 g paracetamol given by the oral route. If a second rescue medication was necessary, a capsule of 575 mg metamizole was administered.
# Pain intensity was assessed for each patient at the following time points: 0 (basal), 1, 2, 4, 6, 8, 10, 12, 18, 24, 30, 36, 42 and 48 hours after the administration of the first dosage of the medication. For each of the four groups, the average VAS value was calculated at each time point.
# [2] = test system: patients with moderate to intense somatic pain after dental surgery; assay: Example 2: phase III trial, oral ibuprofen arginate/tramadol (400/37.5), pain after dental surgery (VAS, rescue medication, safety); conditions: 4 doses every 6 hours, 24 hours follow-up, tramadol HCl 50 mg; for Number of rescued patients: N = 95/97/98, ibuprofen arginate 400 mg; for % of rescued patients: ibuprofen arginate 400 mg
# Procedure: as §1, with “placebo-controlled” for “placebo-controlled,”, “from” for “from visceral”, “intense somatic” for “intense”, “dental surgery.” for “non-oncologic abdominal hysterectomy.”
# as §2
# The patients selected for the study were adults suffering from moderate to severe pain (VAS 0-100≥45 mm) after surgical extraction of at least two third molars, if only two third molars were extracted, they should be ipsilateral and at least one of them impacted, involving bone removal.
# The patients were divided in four groups, receiving the following medication: • Group 1: ibuprofen arginate/tramadol HCl 400 mg/37.5 mg (95 patients) • Group 2: ibuprofen arginate 400 mg (97 patients) • Group 3: tramadol HCl 50 mg (98 patients) • Group 4: placebo (93 patients)
# as §3
# The combination of ibuprofen arginate/tramadol HCl administered to the patients of Group 1 was in the form of a granulate for oral administration (as described in Example 4). Each dosage comprised 340 mg of L-arginine.
# The ibuprofen arginate 400 mg administered to the patients of Group 2 corresponded to the commercial medicine Espidifen® 400 mg, each dose comprising 400 mg of ibuprofen, given as 770 mg of ibuprofen arginate.
# The 50 mg dose of tramadol HCl 50 mg of Group 3 was administered using the commercial medicine Adolonta® 100 mg/ml oral solution.
# After the dental surgery, the pain intensity of each patient was evaluated according to the VAS test until reaching the value ≥45 mm. At that moment, the patient was assigned to one of the four groups in a randomized way and the corresponding medication was administered. A new VAS test was performed after the administration of the first dose of the medication, which was taken as the basal value. 4 doses of each medication were administered, with an interval of 6 hours between doses.
# After the administration of each medication, the evolution of patients was followed until 24 hours after the first dosage, by assessing the change in pain intensity.
# Patients were allowed to ask for rescue medication during that period, starting 30 minutes after the administration of the first dosage. […]
# Pain intensity was assessed for each patient at the following time points: 0 (basal), 1, 2, 3, 4, 5, 6, 8, 12 and 24 hours after the administration of the medication. For each of the four groups, the average VAS value was calculated.
# [3] = test system: patients with moderate to intense pain after dental surgery; assay: Example 1: phase III pilot trial, intravenous ibuprofen arginate combined with tramadol, pain after dental surgery (VAS, rescue medication, adverse effects); conditions: for VAS (average value): single iv infusion
# Procedure: A phase III, multicentre, randomized, double-blind, placebo-controlled, pilot study was performed to assess the compared efficacy and safety of intravenous ibuprofen arginate (400 mg) combined with two different doses of tramadol hydrochloride (37.5 and 75 mg) and of intravenous tramadol 100 mg in patients suffering from moderate to intense pain after dental surgery.
# as §2
# The patients were divided in four groups, receiving the following medication: • Group 1: ibuprofen arginate/tramadol HCl 400 mg/37.5 mg (16 patients) • Group 2: ibuprofen arginate/tramadol HCl 400 mg/75 mg (18 patients) • Group 3: tramadol HCl 100 mg (18 patients) • Group 4: placebo (saline solution) (17 patients)
# The amount of ibuprofen arginate (400 mg) is expressed as the amount of ibuprofen in acidic form. The amount of L-arginine in each composition in groups 1 and 2 was 356 mg, which corresponds to a molar ratio ibuprofen:arginine 1:1.054.
# The compositions of groups 1 to 3 were aqueous solutions of the drugs prepared with water for injection. Other excipients included in the compositions were sodium chloride, used as tonicity agent, to reach an osmolality of 310-360 mOsm/Kg, and hydrochloric acid and sodium hydroxide to adjust the pH of the solution to a value in the range 6.8-7.8. The volume of the composition in all groups was 100 ml, which was infused intravenously during 30 minutes, in a single administration. The preparation of the composition used for Group 1 is analogous as disclosed in Example 5. The preparation of the composition used for Group 2 was equivalent, but using 75 mg of tramadol HCl instead of 37.5 mg.
# Thus, after the dental surgery, the pain intensity of each patient was evaluated according to the VAS test until reaching the value ≥55 mm. At that moment, the patient was assigned to one of the four groups in a randomized way and the corresponding medication was administered not later than 15 minutes after randomization and not later than 25 minutes after VAS test. A new VAS test was performed at the beginning of the infusion, which was taken as the basal value.
# After the administration of each medication, the evolution of patients was followed during 4 hours, by assessing the change in pain intensity.
# Patients were allowed to ask for rescue medication during that period, starting 30 minutes after the administration of each treatment. Rescue medication was 1 g paracetamol given by the oral route. If a second rescue medication was necessary, a capsule of 575 mg metamizole was administered. If rescue medication was administered before 4 hours after the administration of the study medication, the patient left the study (but remained still included for assessing safety parameters and was under monitoring for further 4 hours).
# Pain intensity was assessed for each patient at the following time points: 0 (basal), 15, 30, 45, 60, 75, 90, 105, 120, 150, 180, 210, and 240 minutes after the administration of the medication. For each of the four groups, the average VAS value was calculated.
compound,measurement,setting,value
"CC(C)Cc1ccc(C(C)C(=O)O)cc1 (racemic) [ibuprofen arginate, (RS)-2-(4-(2-methylpropyl)phenyl)propanoic acid]",Total rescued patients (number),[1],23
same,Total rescued patients (%),[1],24.5%
same,Rescued patients at 24 h (%),[1],22.3%
same,Rescued patients at 24 h (number),[1],21
same,Average time until rescue,[1],8.43 h
same,Number of rescued patients,[2],6
same,% of rescued patients,[2],6.2%
"COc1cccc([C@]2(O)CCCC[C@H]2CN(C)C)c1 (racemic) [tramadol HCl, (±)-cis-2-[(dimethylamino)methyl]-1-(3-methoxyphenyl) cyclohexanol]",Total rescued patients (number),[1],31
same,Total rescued patients (%),[1],31.6%
same,Rescued patients at 24 h (%),[1],28.6%
same,Rescued patients at 24 h (number),[1],28
same,Average time until rescue,[1],8.97 h
same,number of adverse effects reported relative to Group 1 (ibuprofen/tramadol),[1],twice
same,Number of rescued patients,[2],38
same,% of rescued patients,[2],38.8%
same,Number of rescued patients,"[3]; iv, 4 hours follow-up, N = 16/18/18, tramadol HCl alone 100 mg",9
same,% of rescued patients,"[3]; iv, 4 hours follow-up, tramadol HCl alone 100 mg",50.0%
same,Number of patients reporting AE,"[3]; iv, N = 16/18/18, tramadol HCl alone 100 mg",5
same,% of patients reporting AE,"[3]; iv, tramadol HCl alone 100 mg",27.8%
same,Average time until rescue,"[3]; iv, tramadol HCl alone 100 mg",70 min
same,Number of AE,"[3]; iv, tramadol HCl alone 100 mg",9
same,VAS (average value),"[3]; 15 min after administration, tramadol HCl alone 100 mg",48.55 mm
same,VAS (average value),"[3]; 30 min, tramadol HCl alone 100 mg",45.28 mm
same,VAS (average value),"[3]; 45 min, tramadol HCl alone 100 mg",47.11 mm
same,VAS (average value),"[3]; 60 min, tramadol HCl alone 100 mg",51.67 mm
same,VAS (average value),"[3]; 75 min, tramadol HCl alone 100 mg",54.72 mm
same,VAS (average value),"[3]; 90 min, tramadol HCl alone 100 mg",54.44 mm
same,VAS (average value),"[3]; 105 min, tramadol HCl alone 100 mg",53.67 mm
same,VAS (average value),"[3]; 120 min, tramadol HCl alone 100 mg",51.55 mm
same,VAS (average value),"[3]; 150 min, tramadol HCl alone 100 mg",49.39 mm
same,VAS (average value),"[3]; 180 min, tramadol HCl alone 100 mg",47.94 mm
same,VAS (average value),"[3]; 210 min, tramadol HCl alone 100 mg",46.72 mm
same,VAS (average value),"[3]; 240 min, tramadol HCl alone 100 mg",44.50 mm
same,VAS (average value),"[3]; time 0 min (basal), tramadol HCl alone 100 mg",72.83 mm
